target: T1, human APJ receptor (Homo sapiens, UniProt P35414); assay: Intracellular cAMP Accumulation Assay (APJ hcAMP, HTRF); format: cell-based; settings: not given
T1 construct: expressed in transfected cells; host or cells: HEK293
T1 sequence (P35414 1-380): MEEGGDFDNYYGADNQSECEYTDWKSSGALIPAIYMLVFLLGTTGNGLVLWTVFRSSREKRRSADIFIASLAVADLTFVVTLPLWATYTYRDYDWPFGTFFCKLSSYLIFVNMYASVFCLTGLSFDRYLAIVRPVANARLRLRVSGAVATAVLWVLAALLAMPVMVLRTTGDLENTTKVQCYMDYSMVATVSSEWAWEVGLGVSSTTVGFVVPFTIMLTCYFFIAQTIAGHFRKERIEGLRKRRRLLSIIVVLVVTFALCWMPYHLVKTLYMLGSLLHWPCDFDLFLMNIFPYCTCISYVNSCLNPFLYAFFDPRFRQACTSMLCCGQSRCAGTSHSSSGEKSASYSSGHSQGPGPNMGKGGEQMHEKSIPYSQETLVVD
In short: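 Stably transfected HEK293 cells (5,000/well) incubated 30 min at room temperature with serially diluted compound, […] and 2 μM forskolin. cAMP measured by HTRF after 60 min with detection reagents, quantified against a cAMP standard curve; EC50 from variable-slope sigmoidal fit of inhibition of forskolin-stimulated cAMP.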

Structure (SMILES)	EC50 [nM]
[2H]C([2H])([2H])Oc1cccc(OC([2H])([2H])[2H])c1-n1c(COCC)nc(=O)c(C(=O)N2CC[C@@H](c3ccccc3)C2)c1O [Example 109, 1-[2,6-bis(^2H3)methoxyphenyl]-2-(ethoxymethyl)-6-hydroxy-5-[(3S)-3-phenylpyrrolidine-1-carbonyl]-1,4-dihydropyrimidin-4-one]	0.01 to 10
CCCCc1nc(=O)c(C(=O)N2CCC(c3ccc(Cl)cn3)C2)c(O)n1-c1c(OC)cccc1OC (single isomer, unassigned) [Example 41, 2-butyl-5-(3-(5-chloropyridin-2-yl)pyrrolidine-1-carbonyl)-1-(2,6-dimethoxyphenyl)-6-hydroxypyrimidin-4(1H)-one]	0.01 to 10

same assay, conditions: human APJ, cAMP accumulation; potency range class; read-out: hAPJ cAMP EC50 Potency range

EC50 [nM]	Structure (SMILES)
0.01 to 10	CC[C@@H](c1ccccc1)n1c(-c2nc(C)cs2)nc(=O)c(C(=O)N2CCC(c3ccc(F)cn3)C2)c1O (single isomer, unassigned) [Example 322]
10 to 100	CCc1cccc(CC)c1-n1c(-c2ccn(CC(C)C)n2)nc(=O)c(C(=O)N2CC[C@@H](c3ccccc3)C2)c1O [Example 317, 1-(2,6-diethylphenyl)-6-hydroxy-2-[1-(2-methylpropyl)-1H-pyrazol-3-yl]-5-[(3S)-3-phenylpyrrolidine-1-carbonyl]-1,4-dihydropyrimidin-4-one]
0.01 to 10	CCc1cccc(CC)c1-n1c(-c2ccn(CC)n2)nc(=O)c(C(=O)N2CCC(c3ncc(Cl)cc3F)C2)c1O (single isomer, unassigned) [Example 311, 5-[3-(5-chloro-3-fluoropyridin-2-yl)pyrrolidine-1-carbonyl]-1-(2,6-diethylphenyl)-2-(1-ethyl-1H-pyrazol-3-yl)-6-hydroxy-1,4-dihydropyrimidin-4-one]
10 to 100	CCc1cccc(CC)c1-n1c(-c2ccn(CC(C)C)n2)nc(=O)c(C(=O)N2CCC(c3ncc(F)cc3F)C2)c1O (single isomer, unassigned) [Example 320, 1-(2,6-diethylphenyl)-5-[3-(3,5-difluoropyridin-2-yl)pyrrolidine-1-carbonyl]-6-hydroxy-2-[1-(2-methylpropyl)-1H-pyrazol-3-yl]-1,4-dihydropyrimidin-4-one]
0.01 to 10	COc1cccc(OC)c1-n1c(-c2csc(C)n2)nc(=O)c(C(=O)N2CCC(c3c(F)cccc3F)C2)c1O (single isomer, unassigned) [Example 270, 5-[3-(2,6-difluorophenyl)pyrrolidine-1-carbonyl]-1-(2,6-dimethoxyphenyl)-6-hydroxy-2-(2-methyl-1,3-thiazol-4-yl)-1,4-dihydropyrimidin-4-one]
0.01 to 10	COc1cccc(OC)c1-n1c(-c2ccc(F)c(C)c2)nc(=O)c(C(=O)N2CCC(c3ncccc3F)C2)c1O (single isomer, unassigned) [Example 255, 1-(2,6-dimethoxyphenyl)-2-(4-fluoro-3-methylphenyl)-5-[3-(3-fluoropyridin-2-yl)pyrrolidine-1-carbonyl]-6-hydroxy-1,4-dihydropyrimidin-4-one]
0.01 to 10	CCn1ccc(-c2nc(=O)c(C(=O)N3CC[C@@H](c4ccccc4)C3)c(O)n2-c2c(OC)cccc2OC)n1 [Example 286, 1-(2,6-dimethoxyphenyl)-2-(1-ethyl-1H-pyrazol-3-yl)-6-hydroxy-5-[(3S)-3-phenylpyrrolidine-1-carbonyl]-1,4-dihydropyrimidin-4-one]
0.01 to 10	CCc1cccc(CC)c1-n1c(-c2csc(C)n2)nc(=O)c(C(=O)N2CCC(c3ncc(Cl)cc3F)C2)c1O (single isomer, unassigned) [Example 296, 5-[3-(5-chloro-3-fluoropyridin-2-yl)pyrrolidine-1-carbonyl]-1-(2,6-diethylphenyl)-6-hydroxy-2-(2-methyl-1,3-thiazol-4-yl)-1,4-dihydropyrimidin-4-one]
0.01 to 10	CCc1cccc(CC)c1-n1c(-c2ccn(C3CC3)n2)nc(=O)c(C(=O)N2CCC(c3ccc(F)cn3)C2)c1O (single isomer, unassigned) [Example 328, 2-(1-cyclopropyl-1H-pyrazol-3-yl)-1-(2,6-diethylphenyl)-5-[3-(5-fluoropyridin-2-yl)pyrrolidine-1-carbonyl]-6-hydroxy-1,4-dihydropyrimidin-4-one]

same assay, conditions: human APJ, intracellular cAMP accumulation; read-out: hAPJ cAMP EC50 Potency range

EC50 [nM]	Structure (SMILES)
0.01 to 10	COc1cccc(OC)c1-n1c(CC2CC2)nc(=O)c(C(=O)N2CC[C@H](c3ccccc3)C2)c1O [Example 32, (R)-2-(cyclopropylmethyl)-3-(2,6-dimethoxyphenyl)-6-hydroxy-5-(3-phenylpyrrolidine-1-carbonyl)pyrimidin-4(3H)-one]
0.01 to 10	CCCCc1nc(=O)c(C(=O)N2CC[C@@H](c3ccccc3)C2)c(O)n1[C@@H](C)c1ccccc1 [Example 125, 2-butyl-6-hydroxy-3-[(1S)-1-phenylethyl]-5-[(3S)-3-phenylpyrrolidine-1-carbonyl]-3,4-dihydropyrimidin-4-one]
0.01 to 10	CCOCc1nc(=O)c(C(=O)N2CCC(c3ccc(F)cc3)C2)c(O)n1-c1c(OC)cccc1OC (single isomer, unassigned) [Example 57, 1-(2,6-dimethoxyphenyl)-2-(ethoxymethyl)-5-[3-(4-fluorophenyl)pyrrolidine-1-carbonyl]-6-hydroxy-1,4-dihydropyrimidin-4-one]
0.01 to 10	CCCCc1nc(=O)c(C(=O)N2CC[C@H](c3ccccc3)C2)c(O)n1[C@H](C)c1ccccc1OC [Example 122, 2-butyl-6-hydroxy-3-[(1R)-1-(2-methoxyphenyl)ethyl]-5-[(3R)-3-phenylpyrrolidine-1-carbonyl]-3,4-dihydropyrimidin-4-one]
0.01 to 10	CC[C@@H](c1cc(F)cc(F)c1)n1c(-c2nc(C)cs2)nc(=O)c(C(=O)N2CCC(c3ccc(Cl)cn3)C2)c1O (single isomer, unassigned) [Example 209]
0.01 to 10	CC[C@@H](c1cc(F)cc(F)c1)n1c(-c2ccn(C)n2)nc(=O)c(C(=O)N2CCC(c3ccc(F)cn3)C2)c1O (single isomer, unassigned) [Example 199]
0.01 to 10	CCCCc1nc(=O)c(C(=O)N2CCC(c3ccc(F)cc3)C2)c(O)n1-c1c(OC)cccc1OC (single isomer, unassigned) [Example 79, 2-butyl-1-(2,6-dimethoxyphenyl)-5-[3-(4-fluorophenyl)pyrrolidine-1-carbonyl]-6-hydroxy-1,4-dihydropyrimidin-4-one]
0.01 to 10	CCCCc1nc(=O)c(C(=O)N2CC[C@@H](c3ccccc3)C2)c(O)n1-c1c(OC)ncnc1OC [Example 112, 2-butyl-3-(4,6-dimethoxypyrimidin-5-yl)-6-hydroxy-5-[(3S)-3-phenylpyrrolidine-1-carbonyl]-3,4-dihydropyrimidin-4-one]
0.01 to 10	CCCCc1nc(=O)c(C(=O)N2CCC(c3cccc(F)c3)C2)c(O)n1-c1c(OC)cccc1OC (single isomer, unassigned) [Example 80, 2-butyl-1-(2,6-dimethoxyphenyl)-5-[3-(3-fluorophenyl)pyrrolidine-1-carbonyl]-6-hydroxy-1,4-dihydropyrimidin-4-one]
0.01 to 10	CC[C@@H](c1cc(F)cc(F)c1)n1c(-c2nc(C)cs2)nc(=O)c(C(=O)N2CCC(c3ccccc3F)C2)c1O (single isomer, unassigned) [Example 208]
0.01 to 10	C=CCCc1nc(=O)c(C(=O)N2CC[C@H](c3ccccc3)C2)c(O)n1-c1c(C)cccc1OC [Example 35, (R)-2-(but-3-en-1-yl)-6-hydroxy-3-(2-methoxy-6-methylphenyl)-5-(3-phenylpyrrolidine-1-carbonyl)pyrimidin-4(3H)-one]
0.01 to 10	COc1cccc(OC)c1-n1c(COC(C)C)nc(=O)c(C(=O)N2CCC(c3ccc(F)cc3)C2)c1O (single isomer, unassigned) [Example 94, 1-(2,6-dimethoxyphenyl)-5-[3-(4-fluorophenyl)pyrrolidine-1-carbonyl]-6-hydroxy-2-[(propan-2-yloxy)methyl]-1,4-dihydropyrimidin-4-one]
0.01 to 10	COc1cccc(OC)c1-n1c(COC(C)C)nc(=O)c(C(=O)N2CCC(c3ccccc3C#N)C2)c1O (single isomer, unassigned) [Example 167]
0.01 to 10	COc1cccc(OC)c1-n1c(COC(C)C)nc(=O)c(C(=O)N2CCC(c3ccc(C#N)cc3)C2)c1O (single isomer, unassigned) [Example 107, 4-{1-[1-(2,6-dimethoxyphenyl)-6-hydroxy-4-oxo-2-[(propan-2-yloxy)methyl]-1,4-dihydropyrimidine-5-carbonyl]pyrrolidin-3-yl}benzonitrile]
0.01 to 10	CCCCc1nc(=O)c(C(=O)N2CCC(c3ccc(F)cc3)C2)c(O)n1-c1c(OC)cccc1OC (stereo not drawn) [Example 87, 2-butyl-3-(2,6-dimethoxyphenyl)-5-[3-(4-fluorophenyl)pyrrolidine-1-carbonyl]-6-hydroxy-3,4-dihydropyrimidin-4-one]

same assay, conditions: read-out: hAPJ cAMP EC50 Potency range

Structure (SMILES)	EC50 [nM]
COc1cccc(OC)c1-n1c(COC(C)(C)C)nc(=O)c(C(=O)N2CCC(c3ccccc3C#N)C2)c1O (single isomer, unassigned) [Example 368, 2-(1-(2-(tert-butoxymethyl)-1-(2,6-dimethoxyphenyl)-6-hydroxy-4-oxo-1,4-dihydropyrimidine-5-carbonyl)pyrrolidin-3-yl)benzonitrile]	0.01 to 10

Reference: patent US10590113B2, “6-hydroxy-4-oxo-1,4-dihydropyrimidine-5-carboxamides as APJ agonists” (priority 2016, dated 2020)
